Experimental findings from patent EP0665223A1, “Antitumor agent, novel 3(2H)-pyridazinone derivatives and their preparation” (TAKEDA CHEMICAL INDUSTRIES, LTD., priority 1994, dated 1995) are described below.

Test [1] has as its system pancreatic cancer cell AsPC-1. Description: Suppressing proliferation of pancreatic cancer cell AsPC-1 in vitro (MTT, number of living cells). In kind it is cell-based. The note with it: Homo sapiens, ASPC1, 72 h, AsPC-1, RPMI 1640 medium, incubated 3 days with test compound. The protocol:
(§1) A cell suspension of pancreatic cancer cell AsPC-1 (20000/ml) in RPMI 1640 medium (Flow Laboratories) supplemented with 10% of inactivated fetal calf serum, 1 mM of sodium pyruvate and 25 mM of HEPES [2-{4-(2-hydroxyethyl)-1-piperazinyl}ethanesulfonic acid] was added to 96-well micro-culture plates (50ul/well). The culture plates were incubated at 37°C in a 5% CO₂ incubator. On the following day, the solution of each test compound dissolved in dimethylformamide and diluted (3-fold steps) was added (50 ul/well), which was incubated for further 3 days. The culture broth containing the test compounds was eliminated, and the cells were washed, to which was added a solution of MTT pigment, and the number of living cells was calculated [Tada et al. J. Immunol. Methods, 93 p.157 (1986)]. The number of cells in the control group containing no test compound was assumed to be 100%, and the respective ratios of cell numbers in groups containing the respective test compounds were calculated to thereby determine the concentrations (IC₅₀ value) of the respective test compounds necessary to suppress the number of living cells to 50% of that of the control group.

For test [2], the system named is pancreatic cancer cell strain PC-3. Description: Suppressing proliferation of PC-3 cells in vitro (MTT, number of living cells). The following applies: 96 h, PC-3, F-12K medium, incubated 4 days with test compound. In kind it is cell-based. The protocol:
as §1
For the test of pancreatic cancer cell strain PC-3, the same method in the case of AcPC-1 was employed excepting the use of F-12K medium containing 10% inactivated fetal calf serum (Flow Laboratories) and change of the incubation period after adding the test compounds to 4 days, to thereby determine the IC₅₀ value (nm).

For orientation: IC50 means the point on the concentration scale where inhibition reaches its midpoint. A low value points to greater potency. Take `CC(C)(C)n1ncc(SCc2ccc(-c3ccccc3)cc2)c(Cl)c1=O` [Compound 3, 2-t-butyl-4-chloro-5-(4-phenyl)benzylthio-3(2H)pyridazinone]: the IC50 was less than 1.52 nM in test [1] and 2 nM in test [2].
For the compound `CC(C)(C)n1ncc(SCc2ccc3ccccc3c2)c(Cl)c1=O` [Compound 4, 2-t-butyl-4-chloro-5-(2-naphthyl)methylthio-3(2H)pyridazinone], the results for the IC50 in test [1] and in test [2] were 15 nM and less than 1.52 nM, respectively.
For `CC(C)(C)n1ncc(SCC=Cc2ccccc2)c(Cl)c1=O` [Compound 6, 2-t-butyl-4-chloro-5-{(3-phenyl)-2-propenylthio}-3(2H)pyridazinone], in that order: 290 nM and 53 nM.
For `CC(C)(C)n1ncc(SCc2ccc3ccccc3n2)c(Cl)c1=O` [Compound 12, 2-t-butyl-4-chloro-5-(2-quinolyl)methylthio-3(2H)pyridazinone], in that order: 74 nM and 42 nM.
For `CC(C)(C)n1ncc(SCc2ccc(-c3ccccc3C#N)cc2)c(Cl)c1=O` [Compound 13, 2-t-butyl-4-chloro-5-{4-(2-cyanophenyl)} benzylthio-3(2H)pyridazinone], in that order: less than 1.52 nM and less than 1.52 nM.
In the case of `CC(C)(C)n1ncc(SCc2ccc(C(F)(F)F)cc2)c(Cl)c1=O` [Compound 17, 2-t-butyl-4-chloro-5-(4-trifluoromethyl) benzylthio-3(2H)pyridazinone], the half-inhibitory concentration (IC50) in test [1] amounted to 59 nM; in test [2], 56 nM.
For `CC(C)(C)n1ncc(OCc2ccc(-c3ccccc3)cc2)c(Cl)c1=O` [Compound 18, 2-t-butyl-4-chloro-5-(4-phenyl)benzyloxy-3(2H)pyridazinone], in that order: less than 1.52 nM and less than 1.52 nM.
Take `CC(C)(C)n1ncc(OCc2ccc3ccccc3c2)c(Cl)c1=O` [Compound 20, 2-t-butyl-4-chloro-5-(2-naphthyl)methyloxy-3(2H)pyridazinone]: the values for the IC50 in test [1] and in test [2] were 440 nM and 5 nM, respectively.
Regarding `Cc1c(SCc2ccc(C(C)(C)C)cc2)cnn(C(C)(C)C)c1=O` [Compound 27, 2-t-butyl-5-(4-t-butyl)benzylthio-4-methyl-3(2H)pyridazinone], the IC50 in test [1] is 9 nM; in test [2], less than 1.52 nM.
The corresponding values for `Cc1c(OCc2ccc(C(C)(C)C)cc2)cnn(C(C)(C)C)c1=O` [Compound 31, 2-t-butyl-5-(4-t-butyl)benzyloxy-4-methyl-3(2H)pyridazinone] are 84 nM and 25 nM.
For `CC(C)(C)n1ncc(SCc2ccc(-c3ccccn3)cc2)c(Cl)c1=O` [Compound 39, 2-t-butyl-4-chloro-5-{4-(2-pyridyl)benzylthio}-3(2H)-pyridazinone], in that order: less than 1.52 nM and 4 nM.
With `CC(C)(C)n1ncc(OCc2ccc(-c3ccccn3)cc2)c(Cl)c1=O` [Compound 42, 2-t-butyl-4-chloro-5-{4-(2-pyridyl)benzyloxy}-3(2H)-pyridazinone], the results for the IC50 in test [1] and in test [2] were 5 nM and 2 nM, respectively.
For `CC(C)(C)n1ncc(SC(CO)c2ccccc2)c(Cl)c1=O` (centres unmarked) [Compound 48, 2-t-butyl-4-chloro-5-(2-hydroxy-1-phenyl) ethylthio-3(2H)-pyridazinone], in that order: 67 nM and 45 nM.
For the compound `CC(C)(C)n1ncc(OCc2ccc(OCc3ccc(F)cc3)nc2)c(Cl)c1=O` [Compound 49, 2-t-butyl-4-chloro-5-[6-(4-fluorobenzyloxy)-3-pyridyl]methoxy-3(2H)-pyridazinone], the IC50 in test [1] was 120 nM; in test [2] it was less than 1.52 nM.
In the case of `CC(C)(C)n1ncc(SCc2ccc(OCc3ccc(F)cc3)nc2)c(Cl)c1=O` [Compound 50, 2-t-butyl-4-chloro-5-[6-(4-fluorobenzyloxy)-3-pyridyl]methylthio-3(2H)-pyridazinone], the values for the IC50 in test [1] and in test [2] were 11 nM and less than 1.52 nM, respectively.
The corresponding values for `CC(C)(C)n1ncc(SCc2ccc(C(=O)c3ccc(Cl)cc3)cc2)c(Cl)c1=O` [Compound 72, 2-t-butyl-4-chloro-5-[4-(4-chlorobenzoyl)benzylthio]-3(2H)-pyridazinone] are less than 1.52 nM and less than 1.52 nM.
The corresponding values for `CC(C)(C)n1ncc(OCc2ccc(C(=O)c3ccc(Cl)cc3)cc2)c(Cl)c1=O` [Compound 73, 2-t-butyl-4-chloro-5-[4-(4-chlorobenzoyl)benzyloxy]-3(2H)-pyridazinone] are 8 nM and less than 1.52 nM.
For `CC(C)(C)n1ncc(SCc2ccc(OCc3ccccc3)cc2)c(Cl)c1=O` [Compound 74, 5-(4-benzyloxybenzylthio)-2-t-butyl-4-chloro-3(2H)-pyridazinone], in that order: 29 nM and less than 1.52 nM.
Turning to `CC(C)(C)n1ncc(OCC(O)c2ccc(-c3ccccc3)cc2)c(Cl)c1=O` (centres unmarked) [Compound 82, 2-t-butyl-4-chloro-5-[2-hydroxy-2-(4-biphenyl)]ethoxy-3(2H)-pyridazinone], the IC50 in test [1] came to 480 nM; in test [2] it was 27 nM.
For `CC(C)(C)n1ncc(OC(CO)c2ccc(-c3ccccc3)cc2)c(Cl)c1=O` (centres unmarked) [Compound 83, 2-t-butyl-4-chloro-5-[2-hydroxy-1-(43-biphenyl)]ethoxy-3(2H)-pyridazinone], in that order: 73 nM and 2 nM.
For the compound `CC(C)(C)n1ncc(SC(CO)c2ccc(-c3ccccc3)cc2)c(Cl)c1=O` (centres unmarked) [Compound 85, 2-t-butyl-4-chloro-5-[2-hydroxy-1-(p-biphenyl)]ethylthio-3(2H)-pyridazinone], the results for the IC50 in test [1] and in test [2] were 12 nM and less than 1.52 nM, respectively.
For `CC(C)(C)OC(=O)Nc1cc(-c2ccc(CSc3cnn(C(C)(C)C)c(=O)c3Cl)cc2)ccn1` [Compound 90, 2-t-butyl-4-chloro-5-[4-[4-(2-t-butoxycarbonylamino)pyridyl]benzylthio]-3(2H)-pyridazinone], in that order: 270 nM and 64 nM.
The corresponding values for `CC(C)(C)OC(=O)Nc1cc(-c2ccc(COc3cnn(C(C)(C)C)c(=O)c3Cl)cc2)ccn1` [Compound 91] are 560 nM and 92 nM.
The corresponding values for `CC(C)(C)n1ncc(SCc2ccc(-c3ccnc(N)c3)cc2)c(Cl)c1=O` [Compound 92, 5-[4-[4-(2-amino)pyridyl]benzylthio]-2-t-butyl-4-chloro-3(2H)-pyridazinone] are 28 nM and less than 1.52 nM.
Take `CC(C)(C)n1ncc(OCc2ccc(-c3ccnc(N)c3)cc2)c(Cl)c1=O` [Compound 93, 5-[4-[4-(2-amino)pyridyl]benzyloxy]-2-t-butyl-4-chloro-3(2H)-pyridazinone]: the IC50 in test [1] worked out at 770 nM; in test [2] it was 110 nM.
For `CC(C)(C)n1ncc(SCc2ccc(-c3ncccn3)cc2)c(Cl)c1=O` [Compound 96, 2-t-butyl-4-chloro-5-[4-(2-pyrimidyl)]benzylthio-3(2H)-pyridazine], in that order: 16 nM and less than 1.52 nM.
Take `CC(C)(C)n1ncc(OCc2ccc(-c3ncccn3)cc2)c(Cl)c1=O` [Compound 97, 2-t-butyl-4-chloro-5-[4-(2-pyrimidyl)]benzyloxy-3(2H)-pyridazine]: the IC50 in test [1] was 280 nM; in test [2], less than 1.52 nM.
For the compound `COc1cc(OC)nc(-c2ccc(CSc3cnn(C(C)(C)C)c(=O)c3Cl)cc2)n1` [Compound 98, 2-t-butyl-4-chloro-5-[4-[2-(4,6-dimethoxy)pyrimidyl]]benzylthio-3(2H)-pyridazinone], the results for the IC50 in test [1] and in test [2] were 54 nM and 6 nM, respectively.
In the case of `COc1cc(OC)nc(-c2ccc(COc3cnn(C(C)(C)C)c(=O)c3Cl)cc2)n1` [Compound 99, 2-t-butyl-4-chloro-5-[4-[2-(4,6-dimethoxy)pyrimidyl]]benzyloxy-3(2H)-pyridazinone], the 50% inhibitory concentration (IC50) in test [1] was found to be 230 nM; in test [2] it was 52 nM.
For `CC(C)(C)n1ncc(SCc2ccc(-c3csc(N)n3)cc2)c(Cl)c1=O` [Compound 102], in that order: 33 nM and 2 nM.
The corresponding values for `CC(C)(C)n1ncc(OCc2ccc(-c3csc(N)n3)cc2)c(Cl)c1=O` [Compound 103] are 250 nM and 210 nM.
The corresponding values for `Cc1c(OCc2ccc(-c3ccccn3)cc2)cnn(C(C)(C)C)c1=O` [Compound 104, 2-t-butyl-4-methyl-5-[4-(2-pyridyl)]benzyloxy-3(2H)-pyridazinone] are 85 nM and less than 1.52 nM.
Consider `CC(C)(C)n1ncc(SCc2ccc(-c3cc[nH]n3)cc2)c(Cl)c1=O` [Compound 111, 2-t-butyl-4-chloro-5-[4-(1H-pyrazol-3-yl)benzylthio]-3(2H)-pyridazinone], for which the IC50 in test [1] stood at 550 nM; in test [2], 3 nM.
For `CC(C)(C)n1ncc(SCc2ccc(-c3ccno3)cc2)c(Cl)c1=O` [Compound 113, 2-t-butyl-4-chloro-5-[4-(1,2-oxazol-5-yl)benzylthio]-3(2H)-pyridazinone], in that order: 120 nM and less than 1.52 nM.
